Among the data in ChEMBL document CHEMBL1149576, “Convergent synthesis and in vivo inhibitory effect on fat accumulation of (-)-ternatin, a highly N-methylated cyclic peptide” (2007) are Activity values, retold here.

The source made the active and inactive calls. The calls are words filed in the database; no cut-off is given here.

For the experiment, the system named is 3T3-L1. In words: Inhibition of fat accumulation in mouse 3T3L1 adipocytes. It counts as functional, cell-based.

On to `CC[C@H](C)[C@H]1NC(=O)[C@@H]([C@H](O)C(C)C)NC(=O)[C@@H](C)N(C)C(=O)[C@H](C)N(C)C(=O)[C@H](CC(C)C)NC(=O)[C@H](CC(C)C)N(C)C(=O)[C@H](C)N(C)C1=O`, for which the outcome was Active.
